Laboratory results published in patent US20130018010A1, “POLYMERIC CONJUGATES OF ADENINE NUCLEOSIDE ANALOGS” (ENZON PHARMACEUTICALS, INC., priority 2010, published 2013).

Experiments:
[1] = tested on: human melanoma cells (A375); assay: Tumor growth inhibition in mice xenografted with human melanoma; format: in vivo; conditions: for tumor growth inhibition: 1 or 5 mg/kg/dose (toyocamycin equivalent) at day 1, 5, 9, 13, compared to toyocamycin i.v. 5 mg/kg/dose, FIG. 18; for tail vein necrosis: 1 or 5 mg/kg/dose at day 1, 5, 9, 13; for effectiveness in the treatment of melanoma: versus untreated, toyocamycin, or 54
Description: The antitumor efficacies of compounds 6, 10, and 54 evaluated in human melanoma xenografted mice. Xenograft tumors were established in mice by injecting human melanoma cells (A375). The mice were treated with toyocamycin i.v. at 5 mg/kg/dose, or compounds 6, 10, and 54 at 1 or 5 mg/kg/dose (based on the amount of toyocamycin) at day 1, 5, 9, and 13. Control group mice received saline solution.

[2] = Hydrolysis rate of PEG conjugates in rat plasma (HPLC); format: in vitro ADME; conditions: 37° C., disappearance of PEG derivative
Description: The rates of hydrolysis were obtained by employing a C18 reversed phase column (Jupiter®) using a gradient mobile phase consisting of (a) 0.05 M TFA buffer and (b) acetonitrile. A flow rate of 1 mL/min was used, and chromatograms were monitored using a UV detector at 260 nm for toyocamycin. For hydrolysis in plasma, the derivatives were dissolved in acetonitrile/MeOH at a concentration of 20 mg/mL. The solution was divided into vials with 100 μL and the solvent removed in vacuo. To the residue, 100 μL of plasma was added, then vortexed for 10 sec. The solutions were incubated at 37° C. for various periods of time. A mixture of methanol-acetonitrile (1:1, v/v, 400 μL) was added to a vial at the proper interval and the mixture was vortexed for 1 min, followed by filtration through […] filter membrane. An aliquot of 40 μL of the filtrate was injected into the HPLC. On the basis of the peak area, the amounts of native compound and PEG conjugates were estimated, and the half-life of each compound in different media was calculated using linear regression analysis from the disappearance of PEG derivative.
The rate of hydrolysis was measured by monitoring disappearance of polymer conjugates and appearance of the parent molecule by HPLC using the procedure for example as described in Example 4 in PBS and in rat plasma.

Substance	tumor growth inhibition [1]	tail vein necrosis [1]	effectiveness in the treatment of melanoma [1]	t1/2 in rat plasma [2]
40 k 4-Arm PEG-Carbamate-Aib-Toyocamycin [Compound 10]	inhibited tumor growth significantly compared to toyocamycin	observed in only one mouse	more effective in the treatment of melanoma than untreated, toyocamycin, or 54	4.1 h
40 k 4-Arm PEG-carbamate-Leu-Toyocamycin [Compound 6]	inhibited tumor growth significantly compared to toyocamycin	observed in only one mouse	more effective in the treatment of melanoma than untreated, toyocamycin, or 54	0.033 h
